Experimental data reported in ChEMBL document CHEMBL5325396, “Discovery of Novel Acridane-Based Tubulin Polymerization Inhibitors with Anticancer and Potential Immunomodulatory Effects” (J Med Chem, 2023).

Legend:
HCT-116 = test: Antiproliferative activity against human HCT-116 cells incubated for 48 hrs by MTT assay; assay type: functional, cell-based; details: HCT-116, 48 h
B16-F10 [1] = test: Antiproliferative activity against mouse B16-F10 cells incubated for 48 hrs by MTT assay; assay type: functional, cell-based; details: B16-F10, 48 h
HeLa = test: cells; details: Homo sapiens, 48 h
Description: Antiproliferative activity against human HeLa cells incubated for 48 hrs by MTT assay

HepG2 = test: Antiproliferative activity against human HepG2 cells incubated for 48 hrs by MTT assay; assay type: functional, cell-based; details: HepG2, 48 h
Tubulin = test: Inhibition of tubulin polymerization (unknown origin); assay type: protein-complex assay, Homo sapiens
B16-F10 [2] = test: Immunomodulatory activity in mouse B16-F10 cells allografted in C57 mouse assessed as increase in CD3-positive CD8-positive cells at 10 mg/kg, ip administered consecutively for 14 days (reference value: 6.66 %); assay type: functional; details: time 14 day
B16-F10 [3] = test: Immunomodulatory activity in mouse B16-F10 cells allografted in C57 mouse assessed as decrease in PD-L1 level at 10 mg/kg, ip administered consecutively for 14 days relative to control; assay type: functional; set-up: scale not given: the % may be the effect or the level left; details: time 14 day
B16-F10 [4] = test: Antitumor activity against mouse B16-F10 cells allografted in C57 mouse assessed as tumor growth inhibition at 10 mg/kg, ip administered consecutively for 14 days; assay type: functional; details: B16-F10, 336 h, time 14 day, read-out: TGI
[5] = Toxicity in C57 mouse allografted with mouse B16-F10 cells assessed as body weight loss at 10 mg/kg, ip administered consecutively for 14 days; assay type: organism-based; details: in vivo, 336 h, time 14 day
B16-F10 [6] = test: Induction of cell cycle arrest in mouse B16-F10 cells assessed as accumulation at G2 phase at 20 nM incubated for 24 hrs by PI staining based flow cytometry (reference value: 23.04 %); assay type: functional
B16-F10 [7] = test: Induction of cell cycle arrest in mouse B16-F10 cells assessed as accumulation at S phase at 20 nM incubated for 24 hrs by PI staining based flow cytometry (reference value: 21.79 %); assay type: functional
B16-F10 [8] = test: Induction of apoptosis in mouse B16-F10 cells assessed as viable cells at 20 nM incubated for 48 hrs by annexinV-FITC/PI staining based flow cytometry (reference value: 93.6 %); assay type: functional; details: read-out: Activity
B16-F10 [9] = test: Induction of cell cycle arrest in mouse B16-F10 cells assessed as accumulation at G1 phase at 20 nM incubated for 24 hrs by PI staining based flow cytometry (reference value: 52.77 %); assay type: functional
B16-F10 [10] = test: Induction of apoptosis in mouse B16-F10 cells assessed as necrotic cells at 20 nM incubated for 48 hrs by annexinV-FITC/PI staining based flow cytometry (reference value: 0.064 %); assay type: functional
B16-F10 [11] = test: Induction of apoptosis in mouse B16-F10 cells assessed as late apoptotic cells at 20 nM incubated for 48 hrs by annexinV-FITC/PI staining based flow cytometry (reference value: 2.06 %); assay type: functional
B16-F10 [12] = test: Induction of apoptosis in mouse B16-F10 cells assessed as early apoptotic cells at 20 nM incubated for 48 hrs by annexinV-FITC/PI staining based flow cytometry (reference value: 4.25 %); assay type: functional

IC50 (HCT-116) [nM]	IC50 (B16-F10 [1]) [nM]	IC50 (HeLa) [nM]	IC50 (HepG2) [nM]	Compound	other results
172	91	909	102	COc1cc(C(=O)N2c3ccccc3Cc3c(C)cccc32)cc(OC)c1OC	–
257	146	1200	160	COc1cc(C(=O)N2c3ccccc3Cc3ccccc32)cc(OC)c1OC	IC50 (Tubulin): 1600 nM
256	144	98	35	COc1cc(C(=O)N2c3ccccc3Cc3cc(F)ccc32)cc(OC)c1OC	–
> 10000	752	676	216	COc1cc(C(=O)N2c3cc(F)ccc3Cc3cc4ccccc4cc32)cc(OC)c1OC	–
–	–	–	–	Cc1c(COc2cc(OCc3cccc(C#N)c3)c(CNC(C)(C)C(=O)O)cc2Cl)cccc1-c1ccccc1	Activity (B16-F10 [2]): 14.6%; Activity (B16-F10 [3]): ~45%; inhibition in vivo at 10 mg/kg (B16-F10 [4]): 19%; Activity [5]: Non-Toxic
> 10000	> 10000	> 10000	> 10000	COc1cc(C(=O)N2c3ccccc3Cc3ccc4ccccc4c32)cc(OC)c1OC	–
128	84	131	83	COc1cc(C(=O)N2c3ccccc3Cc3cc(C)ccc32)cc(OC)c1OC	–
129	85	104	107	COc1cc(C(=O)N2c3cc(Br)ccc3Cc3c2ccc(C)c3C)cc(OC)c1OC	–
240	274	188	30	COc1cc(C(=O)N2c3cc(C)ccc3Cc3ccc(F)cc32)cc(OC)c1OC	–
62	56	49	30	COc1cc(C(=O)N2c3ccccc3Cc3c(C)ccc(C)c32)cc(OC)c1OC	–
103	80	105	91	COc1ccc2c(c1)Cc1ccccc1N2C(=O)c1cc(OC)c(OC)c(OC)c1	–
250	157	86	71	COc1cc(C(=O)N2c3ccccc3Cc3c(Cl)cccc32)cc(OC)c1OC	–
191	106	78	69	COc1cc(C(=O)N2c3ccccc3Cc3cc(Cl)ccc32)cc(OC)c1OC	–
427	211	189	58	COc1cc(C(=O)N2c3ccccc3Cc3ccc(Cl)cc32)cc(OC)c1OC	–
6870	5520	6870	2860	COc1cc(C(=O)N2c3ccccc3Cc3ccc(C(F)(F)F)cc32)cc(OC)c1OC	–
9370	7170	8350	3280	COC(=O)c1ccc2c(c1)N(C(=O)c1cc(OC)c(OC)c(OC)c1)c1ccccc1C2	–
> 10000	1260	1160	630	COC(=O)c1ccc2c(c1)N(C(=O)c1cc(OC)c(OC)c(OC)c1)c1cc(F)ccc1C2	–
> 10000	1020	1030	716	COc1cc(C(=O)N2c3cc(Cl)ccc3Cc3ccc(Cl)cc32)cc(OC)c1OC	–
> 10000	6900	> 10000	> 10000	COc1cc(C(=O)N2c3ccccc3Cc3ccc(F)cc32)cc(OC)c1OC	–
208	92	117	161	COc1cc(C(=O)N2c3ccccc3Cc3cccc(OC)c32)cc(OC)c1OC	–
429	845	586	184	COc1cc(C(=O)N2c3cccc(Cl)c3Cc3c(C)ccc(C)c32)cc(OC)c1OC	–
> 10000	> 10000	> 10000	> 10000	COc1cc(C(=O)N2c3ccccc3C(c3ccccc3)c3ccccc32)cc(OC)c1OC	–
> 10000	1980	2050	661	COc1cc(C(=O)N2c3cc(F)ccc3Cc3ccc(F)cc32)cc(OC)c1OC	–

Compound	IC50 (HCT-116) [nM]	IC50 (B16-F10 [1]) [nM]	IC50 (HeLa) [nM]	IC50 (HepG2) [nM]	other results
COc1cc2c(c(OC)c1OC)-c1ccc(OC)c(=O)cc1[C@@H](NC(C)=O)CC2 [COLCHICINE]	–	88	126	25	Activity (B16-F10 [6]): 55.16%; Activity (B16-F10 [7]): 33.02%; viability at 0.02 µM (B16-F10 [8]): 81.5%; Activity (B16-F10 [9]): 10.06%; Activity (B16-F10 [10]): 0.466%; Activity (B16-F10 [11]): 5.68%; Activity (B16-F10 [12]): 12.4%
